# Source: patent US12037324B2, “Biarylmethyl heterocycles” (Université de Montréal, priority 2016, dated 2024)
# Key:
# [1] = molecular target: T1, AGTR1 (Homo sapiens, UniProt P30556); assay: DiscoveRx IP1 accumulation assay (HTRF), agonist mode, Pathunter CHO-K1 AGTR1 β-arrestin cell line; type: cell-based; conditions: for EC50: read-out: IP-1 EC50
# T1 construct: host or cells: Pathunter CHO-K1 AGTR1 β-arrestin cell line (CHO-K1)
# T1 sequence (P30556 1-359): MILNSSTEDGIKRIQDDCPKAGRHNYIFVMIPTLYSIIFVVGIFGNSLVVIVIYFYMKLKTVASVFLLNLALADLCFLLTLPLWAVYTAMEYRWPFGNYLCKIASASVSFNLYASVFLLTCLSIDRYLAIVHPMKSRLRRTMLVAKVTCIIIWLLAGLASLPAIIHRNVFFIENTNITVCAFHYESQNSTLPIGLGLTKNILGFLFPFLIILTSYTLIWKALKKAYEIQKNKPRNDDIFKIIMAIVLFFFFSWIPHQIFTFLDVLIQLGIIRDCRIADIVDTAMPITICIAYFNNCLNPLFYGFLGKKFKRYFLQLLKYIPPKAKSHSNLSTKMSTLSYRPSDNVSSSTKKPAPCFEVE
# Outline: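 Agonist mode in CHO-K1 AGTR1 β-arrestin cells plated 14-16 h before; compounds at varying concentrations for 90 min at 37° C, IP1 accumulation read by HTRF (D2-conjugate and anti-IP1 cryptate, 20 min room temperature). EC50 from 4-parameter logistic fit; activity given as percentage of maximal AII effect.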
# [2] = molecular target: T2, hAT1R (Homo sapiens, UniProt P30556); assay: BRET β-arrestin2 biosensor assay, higher receptor expression (hAT1R 5 ng/well), HEK293 cells; type: cell-based; conditions: for EC50: High AT1R Expression
# T2 sequence (P30556 1-359): T1 sequence (P30556 1-359)
# [3] = molecular target: T2, hAT1R; assay: cell-based
# [4] = molecular target: T1, AGTR1; assay: DiscoveRx β-arrestin2 recruitment assay (enzyme complementation, Pathunter CHO-K1 AGTR1 β-arrestin cell line); type: cell-based; conditions: DiscoveRx β-arrestin2 recruitment; for DiscoveRx β-arrestin2 Ymax (%): maximal response
# Outline: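 Chemiluminescent enzyme-complementation read-out of β-arrestin2 recruitment to AGTR1 in engineered CHO-K1 cells after 90 min compound exposure at 37° C. Values are 4-parameter logistic EC50s in agonist mode, IC50s in antagonist mode, with efficacy relative to the maximal All response.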
# [5] = molecular target: T2, hAT1R; assay: cell-based; conditions: agonist mode; for EC50: read-out: BRET P63 EC50
# [6] = section of the 42nd table ending at r951, example numbering restarts after the DiscoveRx section, read-out: β-arrestin2 EC50
# [7] = Low AT1R Expression, read-out: BRET β-Arrestin2 Low AT1R Expression EC50
SMILES,IP-1 Ymax (%) [1],EC50 [1],BRET β-Arrestin2 High AT1R Expression Ymax (%) [2],EC50 [2],"EC50 [3, 6]",EC50 [4],DiscoveRx β-arrestin2 Ymax (%) [4],BRET P63 Ymax [5],EC50 [5],BRET β-Arrestin2 Low AT1R Expression Ymax (%) ([3]; Low AT1R Expression),"EC50 [3, 7]"
CCc1nc2c(C)cc(C)nc2n1Cc1ccc(-c2cc(Oc3cc(F)ccn3)ccc2-c2nn[nH]n2)cc1 [Example 254],30.0%,177 nM,75.6%,20 nM,59.1 nM,35.8 nM,26.9%,7.1%,39.9 nM,–,–
CCc1nc2c(C)cc(C)nc2n1Cc1ccc(-c2cc(-c3cc(F)cc(F)c3)ccc2-c2nn[nH]n2)cc1 [Example 53],5.8%,7.9 nM,90.6%,5.4 nM,–,2.6 nM,39.4%,–,> 100000 nM,61.8%,14 nM
CCc1nc2c(C)cc(C)nc2n1Cc1ccc(-c2cc(-c3ccccc3O)ccc2-c2nn[nH]n2)cc1 [Example 10],14.4%,5 nM,86.9%,1.4 nM,–,1.4 nM,60.3%,26.1%,2.8 nM,86.8%,2.4 nM
CCc1nc2c(C)cc(C)nc2n1Cc1ccc(-c2cc(-c3ccccc3)ccc2-c2nn[nH]n2)cc1 [Example 4],9.8%,19 nM,95.4%,3.8 nM,–,7.5 nM,48.9%,13.0%,4.8 nM,69.3%,8.2 nM
CCc1nc2c(C)cc(C)nc2n1Cc1ccc(-c2cc(-n3cccn3)ccc2-c2nn[nH]n2)cc1 [Example 25],6.7%,40.8 nM,74.5%,19.8 nM,–,15.9 nM,23.1%,–,> 100000 nM,10.1%,32.9 nM
"CCCCC1=NC2(CCOC2)C(=O)N1Cc1ccc(-c2cc(-c3ccccc3)ccc2-c2nnn[nH]2)cc1 (single isomer, unassigned) [Example 146]",8.3%,76.2 nM,85.6%,38.2 nM,–,31.6 nM,34.0%,–,> 100000 nM,35.0%,52.6 nM
CCc1nc2c(C)cc(C)nc2n1Cc1ccc(-c2cc(Oc3cncnc3)ccc2-c2nnn[nH]2)cc1 [Example 258],15.1%,42.8 nM,75.7%,41.5 nM,81.9 nM,23.1 nM,35.2%,17.5%,140 nM,–,–
"CCc1nc2c(C)cc(C)nc2n1Cc1ccc(-c2cc(-n3cc(C4CC4)nn3)ccc2-c2nnn[nH]2)cc1 [Example 225, 3-((5′-(4-Cyclopropyl-1H-1,2,3-triazol-1-yl)-2′-(5H-tetrazol-5-yl)-[1,1′-biphenyl]-4-yl)methyl)-2-ethyl-5,7-dimethyl-3H-imidazo[4,5-b]pyridine]",7.0%,25.2 nM,82.1%,10.9 nM,187 nM,29 nM,35.4%,7.1%,29.5 nM,–,–
CCc1nc2c(C)cc(C)nc2n1Cc1ccc(-c2cc(Oc3cc(C)ccn3)ccc2-c2nn[nH]n2)cc1 [Example 250],28.9%,50.5 nM,79.8%,3.8 nM,11 nM,23 nM,43.9%,14.1%,9.3 nM,–,–
CCCn1cc(-c2ccc(-c3nnn[nH]3)c(-c3ccc(Cn4c(CC)nc5c(C)cc(C)nc54)cc3)c2)nn1 [Example 236],19.2%,48.2 nM,93.3%,3.6 nM,17.3 nM,12.5 nM,60.8%,36.2%,34.6 nM,–,–
CCc1nc2c(C)cc(C)nc2n1Cc1ccc(-c2cc(-c3cncc(C)c3)ccc2-c2nn[nH]n2)cc1 [Example 60],5.3%,83.1 nM,85.8%,19.6 nM,–,53.7 nM,33.5%,–,> 10000 nM,39.4%,93.3 nM
CCc1nc2c(C)cc(C)nc2n1Cc1ccc(-c2cc(-c3ccccc3C)ccc2-c2nn[nH]n2)cc1 [Example 2],13.1%,71.8 nM,74.2%,11.3 nM,–,19.8 nM,21.8%,2.7%,22 nM,15.2%,11 nM
"CCc1nc2c(C)cc(C)nc2n1Cc1ccc(-c2cc(Oc3ccccn3)ccc2-c2nnn[nH]2)cc1 [Example 247, 2-Ethyl-5,7-dimethyl-3-((5′-(pyridin-2-yloxy)-2′-(1H-tetrazol-5-yl)-[1,1′-biphenyl]-4-yl)methyl)-3H-imidazo[4,5-b]pyridine]",–,> 100000 nM,74.4%,13.8 nM,22.7 nM,6.9 nM,30.8%,–,> 10000 nM,–,–
CCc1nc2c(C)cc(C)nc2n1Cc1ccc(-c2cc(-n3cc(C(C)C)nn3)ccc2-c2nnn[nH]2)cc1 [Example 227],9.8%,268 nM,87.8%,7.4 nM,31.4 nM,32 nM,51.6%,19.9%,30.4 nM,–,–
CCc1nc2c(C)cc(C)nc2n1Cc1ccc(-c2cc(-n3cc(C4CCCC4)nn3)ccc2-c2nnn[nH]2)cc1 [Example 230],12.7%,340 nM,53.5%,61.2 nM,140 nM,63.1 nM,16.7%,–,> 100000 nM,–,–
